# Measurements taken from patent publication US10196363B2, “Dihydropyrimidin-2-one compounds and medical use thereof” (JAPAN TOBACCO INC., priority 2014, dated 2019).
# Where two headings read alike, the source gives them in different places.
# Assays:
# human RORγ = target: T1, human RORγ (Homo sapiens, UniProt P51449); assay: In vitro assay of inhibitory effect against RORγ transcriptional activity (GAL4-hRORγ LBD luciferase reporter gene assay in CHO cells); format: cell-based; conditions: for hRORγ luciferase activity, %-of-control: vehicle-control 0.2% DMSO alone = 100%
# T1 construct: human RORγ, from Ser253 to Lys518; expressed in transfected cells; host or cells: CHO cells (Chinese hamster ovary), transient co-transfection with pG5-Luc
# T1 sequence (P51449 253-518): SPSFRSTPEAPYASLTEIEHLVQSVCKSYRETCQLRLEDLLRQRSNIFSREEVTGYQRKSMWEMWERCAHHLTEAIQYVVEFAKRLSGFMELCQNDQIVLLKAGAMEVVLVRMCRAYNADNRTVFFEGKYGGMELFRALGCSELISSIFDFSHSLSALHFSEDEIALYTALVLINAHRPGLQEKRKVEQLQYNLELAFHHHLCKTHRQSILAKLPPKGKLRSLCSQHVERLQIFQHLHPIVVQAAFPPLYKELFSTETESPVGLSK
# Description: (§1) In Vitro Assay of Inhibitory Effect Against RORγ Transcriptional Activity
# (§2) Inhibitory effect of a test article on transcriptional activity of RORγ was measured by means of the following reporter gene assay.
# (§3) cDNA encoding human and mouse RORγ ligand binding domain (LBD) were obtained based on the sequences of human RORγ (Genebank registered number NM_005060.3) and mouse RORγ (Genebank registered number NM_011281.2) (LBD sequence: human RORγ, from Ser253 to Lys518; mouse RORγ, from Ile251 to Lys516).
# (§4) The LBD cDNA of human or mouse RORγ was inserted into pFA-CMV vector (Strategene), which expresses GAL4-DNA binding domain fusion protein. The resulting plasmids are hereinafter referred to as GAL4-hRORγ plasmid and GAL4-mRORγ plasmid, respectively.
# (§5) GAL4-hRORγ plasmid or GAL4-mRORγ plasmid was transiently co-transfected into Chinese hamster ovary cells (CHO cells) with pG5-Luc (Promega), a reporter plasmid expressing firefly luciferase depending on GAL4.
# (§6) TransIT (Registered trademark) CHO transfection reagent (Mirus) was used to co-transfect GAL4-hRORγ plasmid or GAL4-mRORγ plasmid into CHO cells with pG5-Luc plasmid. One day before the assay, CHO cells were suspended in HAM F-12 Nutrient medium containing 10 v/v % fetal bovine serum and seeded at 6×10^6 cells per 175 cm^2 cell culture flask. Fifty four micro litters of TransIT (Registered trademark) CHO reagent was added into a 15 ml tube containing 1.16 mL of HAM F-12 Nutrient medium without fetal bovine serum, and mixed and incubated at room temperature for 10 min. Thirty six micro litters of plasmid solution containing the GAL4-hRORγ plasmid (400 ng), pG5-Luc plasmid (9000 ng) and pcDNA3 plasmid (8600 ng) were added into the tube and mixed gently. In case of mouse assay, a plasmid solution containing the GAL4-mRORγ plasmid (250 ng), pG5-Luc plasmid (9000 ng) and pcDNA3 plasmid (8750 ng) was added, instead. The mixture was incubated at room temperature for 10 min. Nine micro litters of CHO Mojo Reagent were then added into each tube and mixed gently. The mixture was incubated at room temperature for 10 min. The resultant transfection reagent was applied to the cell culture. After incubation at 37° C., 5% CO2 for 4 hours, the plasmid-transfected CHO cells were harvested with a trypsin treatment. The collected cells were resuspended in HAM F-12 Nutrient medium supplemented with 10 v/v % fetal bovine serum and plated into a 384-well-white plate at 8,000 cells/50 μL/well. The plate was incubated at room temperature for 1 hour and then further incubated at 37° C., 5% CO2 for 3 hours. The test articles were dissolved in dimethylsulfoxide (DMSO) to obtain a concentration of 10 mM. The resulting solution was diluted with a medium just before use and added to the cells in the plate to prepare 8 different concentrations of the test article. The final concentration of DMSO was 0.2 v/v %. After the addition of the test articles, the cells were incubated at 37° C., 5% CO2 for 2 days.
# (§7) RORγ transcriptional activity was detected as the intracellular luciferase activity using SteadyLite HTS Reporter Gene Assay System (Perkin Elmer). StedyLite Reagent was diluted five-fold into a solution containing Extension reagent (10 mM Tricine, 0.2% w/v BSA, 0.02% v/v Tween-20) to obtain the luciferase substrate solution. After the measurement of the cell viability using Resazurin, the culture media in the plate were removed, and then the luciferase substrate solution was added into each well. After the incubation at room temperature for 10 minutes, luminescence of each well was measured by a microplate reader. The luciferase activity derived from the luminescence count in the vehicle-control well treated with 0.2% DMSO alone was defined as 100%, and the luciferase activity in the test article was calculated as a percentage (%-of-control) based on the value of the vehicle-control. EC50 value of test article was calculated by curve fitting with GraphPad Prism. […]
# mouse RORγ = target: T2, mouse RORγ (Mus musculus, UniProt P51450); assay: In vitro assay of inhibitory effect against RORγ transcriptional activity (GAL4-mRORγ LBD luciferase reporter gene assay in CHO cells); format: cell-based; conditions: for mRORγ luciferase activity, %-of-control: value in parentheses beside the EC50 bound, vehicle-control 0.2% DMSO alone = 100%
# T2 construct: mouse RORγ, from Ile251 to Lys516; expressed in transfected cells; host or cells: CHO cells (Chinese hamster ovary), transient co-transfection with pG5-Luc
# T2 sequence (P51450 251-516): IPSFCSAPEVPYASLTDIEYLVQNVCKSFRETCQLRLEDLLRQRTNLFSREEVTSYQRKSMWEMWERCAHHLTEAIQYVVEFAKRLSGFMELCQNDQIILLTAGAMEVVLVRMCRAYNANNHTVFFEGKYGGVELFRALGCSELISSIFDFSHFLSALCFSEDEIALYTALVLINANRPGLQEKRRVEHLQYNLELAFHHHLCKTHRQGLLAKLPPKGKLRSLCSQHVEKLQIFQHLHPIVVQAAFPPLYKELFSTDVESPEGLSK
# Description: as §1, §2, §3, §4, §5, §6, §7
# [1] = GAL4-hRORγ LBD / pG5-Luc in CHO cells, 2 days incubation
# [2] = GAL4-mRORγ LBD / pG5-Luc in CHO cells, 2 days incubation
# [3] = GAL4-hRORγ LBD luciferase reporter, CHO cells, read-out: LUC EC50 hRORγ
# [4] = value in parentheses beside the EC50 bound
# [5] = GAL4-mRORγ LBD luciferase reporter, CHO cells, read-out: LUC EC50 mRORγ
EC50 (human RORγ; [1]),EC50 (mouse RORγ; [2]),SMILES,other results
19 nM,24 nM,CC(C)C1=CN(CCC(C)C(=O)O)C(=O)NC1(C)c1ccc(OCC(C)(C)C)c(Cl)c1 (mixture of isomers) [Example 21],–
–,–,CC(C)C[S+]([O-])c1ccc([C@]2(C)NC(=O)N(CCC(=O)O)C=C2C(C)C)cc1Cl (mixture of isomers) [Example 215],"EC50 (human RORγ; [3]): > 20000 nM; hRORγ luciferase activity, %-of-control (human RORγ; [4]): (77%); EC50 (mouse RORγ; [5]): > 20000 nM; mRORγ luciferase activity, %-of-control (mouse RORγ): (70%)"
–,–,CC(C)CC[S+]([O-])c1ccc([C@]2(C)NC(=O)N(CCC(=O)O)C=C2C(C)C)cc1Cl (mixture of isomers) [Example 217],"EC50 (human RORγ; [3]): > 20000 nM; hRORγ luciferase activity, %-of-control (human RORγ; [4]): (90%); EC50 (mouse RORγ; [5]): > 20000 nM; mRORγ luciferase activity, %-of-control (mouse RORγ): (77%)"
–,–,CC(C)C1=CN(CCC(=O)O)C(=O)N[C@@]1(C)c1ccc([S+]([O-])C2CCCC2)c(Cl)c1 (mixture of isomers) [Example 223],"EC50 (human RORγ; [3]): > 20000 nM; hRORγ luciferase activity, %-of-control (human RORγ; [4]): (78%); EC50 (mouse RORγ; [5]): > 20000 nM; mRORγ luciferase activity, %-of-control (mouse RORγ): (70%)"
88 nM,60 nM,CC(C)(C)COc1ccc(C2NC(=O)N(CCCC(=O)O)C=C2C(C)(C)C)cc1Cl (racemic) [Example 1],–
> 20000 nM,13100 nM,CC(C)(C)COc1ccc(C2NC(=O)NC=C2C(C)(C)C(=O)O)cc1Cl (racemic) [Example 2],"hRORγ luciferase activity, %-of-control (human RORγ; value in parentheses beside the > EC50 bound): (55%)"
182 nM,61 nM,CC(C)(C)C1=CN(CCCC(=O)O)C(=O)NC1c1ccc(OCCC2CCCCC2)c(Cl)c1 (racemic) [Example 3],–
1440 nM,675 nM,CC(C)(C)COc1ccc(C2NC(=O)NC=C2C(C)(C)CC(=O)O)cc1Cl (racemic) [Example 4],–
152 nM,110 nM,CC(C)(C)COc1ccc(C2NC(=O)NC=C2C(C)(C)CCC(=O)O)cc1Cl (racemic) [Example 7],–
21 nM,22 nM,CC(C)(C)CCc1ccc(C2NC(=O)N(CCCC(=O)O)C=C2C(C)(C)C)cc1Cl (racemic) [Example 8],–
55 nM,32 nM,CC(C)C1=CN(CCCC(=O)O)C(=O)NC1(C)c1ccc(OCC(C)(C)C)c(Cl)c1 (racemic) [Example 9],–
362 nM,137 nM,CC(C)C1=CN([C@H]2C[C@@H](C(=O)O)C2)C(=O)NC1(C)c1ccc(OCC(C)(C)C)c(Cl)c1 (mixture of isomers) [Example 16],–
206 nM,153 nM,CC(C)C1=CN([C@H]2C[C@H](C(=O)O)C2)C(=O)NC1(C)c1ccc(OCC(C)(C)C)c(Cl)c1 (mixture of isomers) [Example 17],–
51 nM,28 nM,CC(C)C1=CN(CCCCC(=O)O)C(=O)NC1(C)c1ccc(OCC(C)(C)C)c(Cl)c1 (racemic) [Example 18],–
17 nM,29 nM,CC(C)(C)CCc1ccc(C2(C)NC(=O)N(CCCC(=O)O)C=C2C(C)(C)C)cc1Cl (racemic) [Example 22],–
42 nM,41 nM,CC(C)(C)CCc1ccc(C2(C)NC(=O)N(CCCC(=O)O)C=C2CC(C)(C)C)cc1Cl (racemic) [Example 23],–
364 nM,217 nM,CC(C)C1=CN(CCCC(=O)O)C(=O)NC1(C)c1ccc(CCC(C)(C)C)cc1 (racemic) [Example 26],–

EC50 (human RORγ; [1]),EC50 (mouse RORγ; [2]),SMILES,other results
25 nM,16 nM,CC(C)CCc1ccc(C2(C)NC(=O)N(CCCC(=O)O)C=C2C(C)C)cc1Cl (racemic) [Example 27],–
187 nM,82 nM,CCCCc1ccc(C2(C)NC(=O)N(CCCC(=O)O)C=C2C(C)C)cc1Cl (racemic) [Example 28],–
36 nM,49 nM,CC(C)C1=CN([C@H]2CC[C@H](C(=O)O)CC2)C(=O)NC1(C)c1ccc(CCC(C)(C)C)c(Cl)c1 (mixture of isomers) [Example 29],–
60 nM,47 nM,CC(C)C1=CN([C@H]2CC[C@@H](C(=O)O)CC2)C(=O)NC1(C)c1ccc(CCC(C)(C)C)c(Cl)c1 (mixture of isomers) [Example 30],–
36 nM,21 nM,CCCCCc1ccc(C2(C)NC(=O)N(CCCC(=O)O)C=C2C(C)C)cc1Cl (racemic) [Example 53],–
665 nM,520 nM,CC(C)(C)COc1ccc(C2NC(=O)NC=C2C2CC(C(=O)O)C2)cc1Cl (racemic) [Example 62],–
251 nM,133 nM,CCCCc1ccc(C2(C)NC(=O)N(CCCC(=O)O)C=C2C(C)C)cc1F (racemic) [Example 70],–
16 nM,17 nM,CC(C)C1=CN(C[C@H]2C[C@H](C(=O)O)C2)C(=O)NC1(C)c1ccc(CCC(C)(C)C)c(Cl)c1 (mixture of isomers) [Example 80],–
2580 nM,2490 nM,CC(C)(C)CCc1ccc(C2(C)NC(=O)N(CCCC(=O)O)C=C2C2CN(S(C)(=O)=O)C2)cc1Cl (racemic) [Example 81],–
746 nM,502 nM,CCCCc1ccc(C2(C)NC(=O)N(CCCC(=O)O)C=C2C(C)C)cc1 (racemic) [Example 84],–
545 nM,368 nM,CCCCc1ccc(C2(C)NC(=O)N(CCCC(=O)O)C=C2C(C)C)cc1OCc1ccccc1 (racemic) [Example 85],–
15 nM,18 nM,CC1=C(C(C)C)C(C)(c2ccc(CCC(C)(C)C)c(Cl)c2)NC(=O)N1CCCC(=O)O (racemic) [Example 90],–
2790 nM,1690 nM,CC(C)C1=CN(CCCC(=O)O)C(=O)NC1(C)c1ccc(OCCC(F)(F)F)cc1 (racemic) [Example 105],–
1160 nM,616 nM,CC(C)Cc1ccc(C2(C)NC(=O)N(CCCC(=O)O)C=C2C(C)C)cc1 (racemic) [Example 106],–
14900 nM,11000 nM,CCOC(=O)c1ccc(C2(C)NC(=O)N(CCC(=O)O)C=C2C(C)C)cc1Cl (racemic) [Example 114],–
172 nM,63 nM,CC(C)(C)C#Cc1ccc(C2NC(=O)N(CCCC(=O)O)C=C2C(C)(C)C)cc1Cl (racemic) [Example 187],–
2610 nM,1130 nM,CC(C)=Cc1ccc(C2(C)NC(=O)N(CCCC(=O)O)C=C2C(C)C)cc1 (racemic) [Example 188],–
